# Patent US7815918B2, “Polypeptides and immunogenic conjugates capable of inducing antibodies against pathogens, and uses thereof” (priority 2003, dated 2010)
# Entries after “also recorded” stand apart in the source; their conditions may differ. Ends that are not written are not given here.
# B1: A121-142: truncated A12 molecule, residues 1-142 of SEQ ID NO: 5, expressed as thioredoxin fusion protein (protein)
# chain: TNISEPALPDKDPQPTSSPQPKPRPRPRPQPQPHPHPKPQPQPTPEPQPQPAPEPRPQPTSKPRPQPTSKPRPQPTPEPRPLPVPGPGPLPVPGPRPQPQPQPQPQPQPQPQPQPQPQPQPQPQPQPQPQPKPQPPSQSTSE
# modifications: thioredoxin fusion partner
# B2: A121-82: truncated A12 molecule, residues 1-82 of SEQ ID NO: 5, expressed as thioredoxin fusion protein (protein)
# chain: TNISEPALPDKDPQPTSSPQPKPRPRPRPQPQPHPHPKPQPQPTPEPQPQPAPEPRPQPTSKPRPQPTSKPRPQPTPEPRPL
# modifications: thioredoxin fusion partner
# B3: URSP2 PspA: recombinant thioredoxin fusion protein containing the α-helical domain, clade defining region and proline-rich repeat region of URSP2 PspA (protein)
# chain: EKELKEIDESDSEDYIKEGLRAPLQSKLDAKKAKLSKLEELSDKIDELDAEIAKLEKDVEDFKNSDGEQAEQYLVAAKKDLDAKKAELENTEADLKKAVDEPETPAPAPKPAPAPAPTPEAPAPAPKPAPAPKPAPAPAPTPEAPAPAPKPAPAPKPAPAPAPTPEAPAPAPKPAPAPRPAPAPKPAPDPKP
# modifications: left off: large carriers
# How the values were obtained:
# mAb 4F11(G1) [1] = assay: Western blot of purified recombinant thioredoxin fusion proteins probed with mAb 4F11; type: binding, mouse; conditions: for reactivity with mAb 4F11 in Western blot: purified thioredoxin fusion protein separated by SDS-PAGE
# Excerpt: MAb 4F11 was produced as described (Lee et al., “Molecular Characterization of KEX1, a Kexin-Like Protease in Mouse Pneumocystis carinii,” Gene 242:141-150 (2000), which is hereby incorporated by reference in its entirety). For colony immunoscreens and P. carinii immunofluorescence assays (IFAs), mAb 4F11 IgM ascites fluid was used at a 1:5000 dilution. For enzyme-linked immunosorbent assays (ELISA) and Western blots of purified recombinant proteins an IgG1 switch-variant of mAb 4F11(G1) (Gigliotti et al., “Passive Intranasal Monoclonal Antibody Prophylaxis Against Murine Pneumocystis carinii Pneumonia,” Infect. Immun. 70:1069-1074 (2002), which is hereby incorporated by reference in its entirety) was prepared by saturated ammonium sulfate precipitation of tissue culture supernatant and used at the indicated dilutions. MAb 2B5 is an IgG1 that recognizes a mouse P. carinii gpA (Gigliotti et al., “Antibody-Mediated Shift in the Profile of Glycoprotein A Phenotypes Observed in a Mouse Model of Pneumocystis carinii Pneumonia,” Infect. Immun. 64:1892-1899 (1996), which is hereby incorporated by reference in its entirety) and was used as a negative control in S. pneumoniae immunoblots and IFAs. MAb 1C7 is an anti-mouse P. carinii IgM used as an isotype control in IFAs against P. carinii derived from different hosts. Pooled hyperimmune sera against mouse P. carinii was obtained as described previously (Gigliotti et al., “Development of Murine Monoclonal Antibodies to Pneumocystis carinii,” J. Infect. Dis. 154:315-322 (1986), which is hereby incorporated by reference in its entirety).
# To confirm reactivity of E. coli pSCREEN transformants with mAb 4F11, 5 mL overnight cultures were pelleted and resuspended in 200 μL of 1× Laemmli SDS running/sample buffer+5% β-mercaptoethanol, and 20 μL samples were separated on NuPAGE Bis-Tris 4-12% gels (Invitrogen) by SDS-PAGE. S. pneumoniae from blood agar plates was grown in 5 mL THY overnight, 1 mL aliquots were pelleted, resuspended in 200 μL 1× sample buffer, and 20 μL were resolved by SDS-PAGE. Purified recombinant protein was suspended in sample buffer in equal concentrations and separated as described for cell lysates. Western blots were performed as previously described (Lee et al., “Molecular Characterization of KEX1, a Kexin-Like Protease in Mouse Pneumocystis carinii,” Gene 242:141-150 (2000), which is hereby incorporated by reference in its entirety).
# Production of 6×His-tagged thioredoxin fusion proteins using the pBADTHIO expression system in E. coli was performed following the manufacturer's instructions. Briefly, overnight cultures were diluted 1:40 in fresh LB+100 μg/mL ampicillin and grown at 37° C. with shaking to absorbance at 600 nm of approximately 0.5. For fusion protein induction, arabinose was added to a final concentration of 0.02% and cultures were grown an additional 5 hr at 37° C. with shaking. Cells were pelleted by centrifugation at 1000×g then resuspended in ⅕ original culture volume with lysis buffer (50 mM sodium phosphate, 6 M guanidine-HCl, 300 mM NaCl) and vortexed vigorously. Debris was pelleted by centrifugation at 10,000×g at 4° C. The supernatants were passed over a TALON affinity resin column (BD Biosciences, Palo Alto, Calif.) that had been pre-equilibrated with lysis buffer. The columns were then washed twice with 10 mL 50 mM sodium phosphate, 300 mM NaCl. The fusion proteins were eluted with 2 mL buffer containing 50 mM sodium phosphate, 300 mM NaCl, and 150 mM imidazole. The eluted protein was dialyzed overnight against PBS at 4° C. and concentrated by vacuum centrifugation. Protein concentrations were determined using a BCA microwell assay kit (Pierce, Rockford, Ill.).
# mAb 4F11(G1) [2] = assay: ELISA of epitope-thioredoxin fusion constructs using mAb 4F11(G1); type: binding, mouse
# Method: (§1) Purified recombinant protein at a concentration of 10 μg/mL in 50 mM carbonate-bicarbonate buffer pH 9.5+0.1% SDS was used to coat Costar ELISA plates (Corning Incorporated, Corning, N.Y.) 16-20 hr at 37° C. The plates were blocked with 3% BSA-TBST for 1 hr at 4° C. Primary antibody was added in two-fold serial dilutions in 3% BSA-TBST and incubated at 4° C. for 1 hr. Goat anti-mouse IgG+IgM-alkaline phosphatase conjugate secondary antibody was added at 1:5000 dilution in BSA-TBST for one hr at 4° C. Blue Phos substrate (KPL, Gaithersburg Md.) was added for 30 min, color development was stopped with 2.5% EDTA, and absorbance was read at 655 nm using a Benchmark microplate reader (Bio-Rad).
# Experimental ELISA results were statistically compared to the control values using a two-tailed Student's t test. Results were considered significant if p≦0.05.
# [3] = target: 4F11(G1) binding against plate-bound sonicated mouse P. carinii; assay: Competitive (inhibition) ELISA: synthetic peptides as soluble competitors for 4F11(G1) binding to plate-bound sonicated mouse P. carinii
# Excerpt: FIGS. 5A-F show the analysis of purified recombinant epitope-thioredoxin fusion proteins. FIG. 5A is a gel stained with Coomassie Blue. FIG. 5B is a Western blot using mAb 4F11(G1). FIG. 5C is a Western blot using anti-V5 epitope tag mAb. FIG. 5D is an ELISA of epitope-thioredoxin fusion constructs using mAb 4F11(G1). Results are plotted as the mean±standard error of triplicate experiments. […] Results are plotted as the mean±standard deviation of triplicate experiments. […] Results are plotted as the mean±standard deviation of triplicate experiments. The dashed line indicates the mean absorbance at 655 nm with no inhibitor and a 4F11(G1) dilution of 1:3200.
# (§2) Mouse P. carinii Kexin 777-787 (RPAPPKPTPQP, SEQ ID NO: 56) and Kexin 131-142 (SGDTGNVNSGEK, SEQ ID NO: 57) peptides were purchased from Alpha Diagnostics (San Antonio, Tex.). ELISA experiments using the synthetic peptides were performed as described above, using 10 μg peptide/mL in carbonate-bicarbonate buffer to coat the plates. For competitive ELISA studies peptides were incubated at three fold dilutions with a starting concentration of 100 μg/mL for 2 hr with a 1:3200 dilution of mAb 4F11 at 4° C. to reach equilibrium. Mouse P. carinii sonicates in carbonate-bicarbonate buffer were used to coat ELISA plates at the equivalence of 4×10^4 cysts per well overnight at 4° C. The peptide-antibody mixtures, or antibody alone at 1:3200 dilution, were used as the primary antibody in the ELISA following the above protocol.
# mAb 4F11(G1) [4] = assay: ELISA of synthetic P. carinii peptides using mAb 4F11(G1); type: binding, mouse; conditions: 10 μg peptide/mL coat, no fusion partner
# Method: as §1
# as §2, with “The peptide-antibody mixtures, or antibody alone at 1:3200 dilution, were used as the primary antibody in the ELISA following the above protocol.” left out
# [5] = system: hyperimmune sera from mice immunized with whole P. carinii; assay: Western blot of A12 fusion protein with hyperimmune sera from P. carinii-immunized mice; type: binding, mouse
# Excerpt: MAb 4F11 was produced as described (Lee et al., “Molecular Characterization of KEX1, a Kexin-Like Protease in Mouse Pneumocystis carinii,” Gene 242:141-150 (2000), which is hereby incorporated by reference in its entirety). For colony immunoscreens and P. carinii immunofluorescence assays (IFAs), mAb 4F11 IgM ascites fluid was used at a 1:5000 dilution. For enzyme-linked immunosorbent assays (ELISA) and Western blots of purified recombinant proteins an IgG1 switch-variant of mAb 4F11(G1) (Gigliotti et al., “Passive Intranasal Monoclonal Antibody Prophylaxis Against Murine Pneumocystis carinii Pneumonia,” Infect. Immun. 70:1069-1074 (2002), which is hereby incorporated by reference in its entirety) was prepared by saturated ammonium sulfate precipitation of tissue culture supernatant and used at the indicated dilutions. MAb 2B5 is an IgG1 that recognizes a mouse P. carinii gpA (Gigliotti et al., “Antibody-Mediated Shift in the Profile of Glycoprotein A Phenotypes Observed in a Mouse Model of Pneumocystis carinii Pneumonia,” Infect. Immun. 64:1892-1899 (1996), which is hereby incorporated by reference in its entirety) and was used as a negative control in S. pneumoniae immunoblots and IFAs. MAb 1C7 is an anti-mouse P. carinii IgM used as an isotype control in IFAs against P. carinii derived from different hosts. […]
# [6] = at lower mAb 4F11 dilutions, plate coated 10 μg/mL
molecule,measurement,setting,value
E46PRPQPTS53 (EPRPQPTS; not fully specified; printed as E46PRPQPTS53) [A1246-53],reactivity with mAb 4F11 in Western blot,mAb 4F11(G1) [1],do not react with mAb 4F11
E54PQPQPAP61 (EPQPQPAP; not fully specified; printed as E54PQPQPAP61) [A1254-61],reactivity with mAb 4F11 in Western blot,mAb 4F11(G1) [1],do not react with mAb 4F11
K62PRPQPTSKPRPQPTP77 (KPRPQPTSKPRPQPTP; not fully specified; printed as K62PRPQPTSKPRPQPTP77) [A1262-77],ELISA reactivity to mAb 4F11,mAb 4F11(G1) [2]; at 1:800 or greater dilution,only background reactivity
same,ELISA reactivity with mAb 4F11,mAb 4F11(G1) [2]; [6],"lower reactivity, but significantly higher than the thioredoxin fusion partner alone"
K70PRPQPTP77 (KPRPQPTP; not fully specified; printed as K70PRPQPTP77) [A1270-77],reactivity with mAb 4F11 in Western blot,mAb 4F11(G1) [1],positive reactivity
K856PAPKPTP863 (KPAPKPTP; not fully specified; printed as K856PAPKPTP863) [Kexin856-863],reactivity with mAb 4F11 in Western blot,mAb 4F11(G1) [1],positive reactivity
K856PAPKPTPPKPAPKPAP872 (KPAPKPTPPKPAPKPAP; not fully specified; printed as K856PAPKPTPPKPAPKPAP872) [Kexin856-872],ELISA reactivity with mAb 4F11,mAb 4F11(G1) [2]; [6],highest reactivity
K865PAPKPAP872 (KPAPKPAP; not fully specified; printed as K865PAPKPAP872) [Kexin865-872],reactivity with mAb 4F11 in Western blot,mAb 4F11(G1) [1],positive reactivity
R777PAPPKPTPQP787 [Kexin777-787],50% inhibition of binding of mAb 4F11 to native P. carinii antigens,[3]; 4F11(G1) diluted 1:3200,150 ng/mL
same,concentration that completely blocks binding of mAb 4F11 to native P. carinii antigens,[3]; 4F11(G1) diluted 1:3200,1 µg/mL
same,ELISA reactivity with mAb 4F11,mAb 4F11(G1) [2]; at higher mAb 4F11 dilutions,greater reactivity with mAb 4F11 than did the original 17mer epitope
same,ELISA reactivity with mAb 4F11,mAb 4F11(G1) [2]; [6],highest reactivity
same,"binding with mAb 4F11 compared with Kexin856-872, based on size and intensity of the Western blot band",mAb 4F11(G1) [1]; 1 μg purified protein,enhanced binding
RPAPPKPTPQP [Kex777-787],ELISA reactivity of synthetic peptide to mAb 4F11,mAb 4F11(G1) [4],high reactivity
"SGDTGNVNSGEK [Kex131-142, reference compound]",inhibition of binding of mAb 4F11 to native P. carinii antigens,[3]; at the highest concentration tested,no inhibition
same,ELISA reactivity of synthetic peptide to mAb 4F11,mAb 4F11(G1) [4],did not react
"thioredoxin fusion partner: thioredoxin fusion partner alone, negative control for the fusion constructs [reference compound]",reactivity with mAb 4F11 in Western blot,mAb 4F11(G1) [1],does not react with mAb 4F11; also recorded: did not react with mAb 4F11
same,reactivity with mAb 4F11 in Western blot,mAb 4F11(G1) [1]; listed as fusion partner,did not react with mAb 4F11
B1,reactivity with mAb 4F11 in Western blot,mAb 4F11(G1) [1],reacted with mAb 4F11
B2,reactivity with hyperimmune sera in Western blot,[5],reacted with hyperimmune sera
same,reactivity with mAb 4F11 in Western blot,mAb 4F11(G1) [1],reacted with mAb 4F11
B3,reactivity with mAb 4F11 in Western blot,mAb 4F11(G1) [1],shown to react with mAb 4F11
